Measurements published in patent US20100047371A1, “COMPOSITIONS AND METHODS FOR ORAL CANCER CHEMOPREVENTION USING BERRY PREPARATIONS AND EXTRACTS” (priority 2006, published 2010).
Blank lines part the entries; values can stand above or below the compound they belong to.

How the values were obtained:
[1] = Human pharmacokinetic study: anthocyanins in saliva and peripheral blood after topical gel application; assay type: in vivo; details: for Anthocyanin concentration in saliva / Anthocyanin concentration in peripheral blood: 1.0 g 5% FBR Gel, pH 6.5 topical to floor of mouth; for Anthocyanin concentration in saliva: saliva collected 2-5 min after application; for Anthocyanin concentration in peripheral blood: blood drawn five minutes after application
Procedure: Anthocyanin content in sera, saliva, and tissue explants was evaluated by an HPLC-MS assay. The respective samples (sera, saliva or tissue homogenates) were dissolved in 90% solvent A (water plus 1% formic acid) and 10% solvent B (acetonitrile plus 1% formic acid) and then separated on a Symmetry C18 reversed-phase column and analyzed using a Waters 2695 gradient HPLC separation module equipped with a 996 photodiode-array (PDA) UV/visible absorbance detector (Milford, Mass.). The solvent system consisted of a step gradient from 90% A to 50% B over 15 minutes, and the absorption spectra were recorded from 200-800 nm with the inline PDA detector. Mass spectrometry was conducted on a quadrupole ion tunnel mass spectrometer equipped with a Z-spray ESI source. Explant protein levels were determined by the Lowry method, using bovine γ-globulin as the standard protein [Lippman et al., 1993].
Next, evaluation of anthocyanin uptake into human oral mucosa from FBR gels prepared as described in Example 1 was undertaken. For in-vivo studies, participation of human subjects was conducted in accordance with an IRB approved protocol. […] For the phamacokinetic analyses, nine consenting adult volunteers dried the anterior floor of their mouth, placed 1.0 g of 5% berry gel (pH 6.5), and massaged the gel in place for 30 seconds to facilitate uptake. Two minutes after gel application saliva was collected for the next three minutes. Peripheral blood was drawn five minutes after gel application. Following clotting, sera samples were collected, and both the sera and saliva samples were stored at −80° C. until LC-MS analysis as described below.
All nine participants had detectable anthocyanin levels of three anthocyanins (cyanidin 3-rutinoside, cyanidin 3-xylosylrutinoside, cyanidin 3-glucoside) in either their saliva or blood, and 4 donors had detectable levels of two anthocyanins (cyanidin 3-rutinoside and cyanidin 3-xylosylrutinoside) in their peripheral blood. Saliva from eight of the nine donors contained detectable levels of either two (cyanidin 3-rutinoside and cyanidin 3-xylosylrutinoside-4 donors) or three anthocyanins (4 donors).

[2] = test system: Human Oral Mucosa Explant Tissues; test: Effect of final gel pH on anthocyanin uptake into human oral mucosa explant tissues; assay type: in vitro ADME; details: 10% w/w FBR gel; for Anthocyanin uptake, Gel pH 3.5, Avg. ± SEM / Anthocyanin uptake, Gel pH 6.5, Avg. ± SEM: average of eleven explant samples; for % change 3.5 to 6.5, Avg. ± SEM: average of explant samples
Procedure: Anthocyanin content in sera, saliva, and tissue explants was evaluated by an HPLC-MS assay. The respective samples (sera, saliva or tissue homogenates) were dissolved in 90% solvent A (water plus 1% formic acid) and 10% solvent B (acetonitrile plus 1% formic acid) and then separated on a Symmetry C18 reversed-phase column and analyzed using a Waters 2695 gradient HPLC separation module equipped with a 996 photodiode-array (PDA) UV/visible absorbance detector (Milford, Mass.). The solvent system consisted of a step gradient from 90% A to 50% B over 15 minutes, and the absorption spectra were recorded from 200-800 nm with the inline PDA detector. Mass spectrometry was conducted on a quadrupole ion tunnel mass spectrometer equipped with a Z-spray ESI source. Explant protein levels were determined by the Lowry method, using bovine γ-globulin as the standard protein [Lippman et al., 1993]. Tissue explants, specifically human oral mucosal explants, were used to determine the in vitro effects of FBR content and pH on anthocyanin uptake. Human oral tissues for the tissue explant studies were obtained from consenting volunteers who were undergoing elective oral surgery procedures. To confirm “no pathologic diagnosis”, a portion of each of these tissues was submitted for light microscopic evaluation. […] Tissues for explant experiments were immediately placed in an artificial saliva transport medium, which also served as the incubation medium for the gel absorption studies. The composition of the artificial saliva used for tissue transport and incubation was (final concentrations): sodium carboxymethylcellulose (0.5%), sorbitol (165 mM), NaCl (14 mM), KCl (16 mM), calcium chloride dehydrate (1.0 mM), MgCl2 (0.63 mM), Trizma hydrochloride (2.0 mM). Tissues from eight donors were used for preliminary studies to compare the penetration of anthocyanins from the 5% berry gel and the 10% FBR gel, both at a final pH of 6.5. In order to account for heterogeneity among human donors, tissue samples were hemisected. One tissue portion treated with 5% and the other with 10% FBR gels. One gram of gel (containing either 5% or 10% w/w FBR) was placed on the epithelial surface of the explant, followed by gently rubbing of the site for 30 seconds to facilitate uptake. Explants were then placed into artificial saliva, incubated for 30 minutes (37° C., 5% CO2), and then frozen at −80° C. until HPLC-mass spectroscopy analyses as previously reported [Rodrigo et al., in press]. Tissue preparation for HPLC analyses consisted of homogenization of the entire oral mucosal specimen, removal of an aliquot for sample protein level determination, followed by the addition of collagenase type II (0.1 mg/mL, GIBCO, Grand Island, N.Y.) and 1% formic acid. Samples were then placed on a Sep Pack (Millipore, Billerica, Mass.), eluted with methanol, and dried under argon gas. Additional oral mucosal explant studies were conducted to compare the effect of FBR gel pH on absorption into oral mucosal explants. Tissues from eleven donors were used for these studies, and handling was as described above with the exception that all gels contained 10% w/w FBR and were formulated at a final pH of 3.5 or 6.5. […] Large differences (up to 15-fold) in detectable anthocyanin levels were found in the gel treated donor tissues; findings that likely reflect the extensive heterogeneity within human tissues that affects tissue penetrative abilities.

number of donors with detectable levels in peripheral blood ([1]; of nine participants, 5% berry gel (pH 6.5), five minutes after application): 4 donors
Anthocyanin concentration in saliva ([1]; patient 101): 2.0 pmol/mL
Anthocyanin concentration in saliva ([1]; patient 102): 0.5 pmol/mL
Anthocyanin concentration in peripheral blood ([1]; patient 103): 0.6 pmol/mL
Anthocyanin concentration in saliva ([1]; patient 104): 1.5 pmol/mL
Anthocyanin concentration in peripheral blood ([1]; patient 105): 1.1 pmol/mL
Anthocyanin concentration in saliva ([1]; patient 105): 2.3 pmol/mL
Anthocyanin concentration in peripheral blood ([1]; patient 106): 0.8 pmol/mL
Anthocyanin concentration in saliva ([1]; patient 106): 1.9 pmol/mL
Anthocyanin concentration in peripheral blood ([1]; patient 107): 1.3 pmol/mL
Anthocyanin concentration in saliva ([1]; patient 107): 1.7 pmol/mL
Anthocyanin concentration in saliva ([1]; patient 108): 1.0 pmol/mL
Anthocyanin concentration in saliva ([1]; patient 109): 1.2 pmol/mL
Anthocyanin uptake, Gel pH 3.5, Avg. ± SEM [2]: 5.4 pmol per mg tissue
Anthocyanin uptake, Gel pH 6.5, Avg. ± SEM [2]: 17.4 pmol per mg tissue
% change 3.5 to 6.5, Avg. ± SEM [2]: 140.6%
% change 3.5 to 6.5 ([2]; explant sample 001): 522.5%
Anthocyanin uptake, Gel pH 3.5 ([2]; explant sample 001): 14.2 pmol per mg tissue
Anthocyanin uptake, Gel pH 6.5 ([2]; explant sample 001): 88.1 pmol per mg tissue
% change 3.5 to 6.5 ([2]; explant sample 002): 747.1%
Anthocyanin uptake, Gel pH 3.5 ([2]; explant sample 002): 1.2 pmol per mg tissue
Anthocyanin uptake, Gel pH 6.5 ([2]; explant sample 002): 10.3 pmol per mg tissue
% change 3.5 to 6.5 ([2]; explant sample 003): 12.1%
Anthocyanin uptake, Gel pH 3.5 ([2]; explant sample 003): 5.7 pmol per mg tissue
Anthocyanin uptake, Gel pH 6.5 ([2]; explant sample 003): 6.4 pmol per mg tissue
% change 3.5 to 6.5 ([2]; explant sample 004): −65.1%
Anthocyanin uptake, Gel pH 3.5 ([2]; explant sample 004): 3.6 pmol per mg tissue
Anthocyanin uptake, Gel pH 6.5 ([2]; explant sample 004): 1.3 pmol per mg tissue
% change 3.5 to 6.5 ([2]; explant sample 005): −45.9%
Anthocyanin uptake, Gel pH 3.5 ([2]; explant sample 005): 0.9 pmol per mg tissue
Anthocyanin uptake, Gel pH 6.5 ([2]; explant sample 005): 0.5 pmol per mg tissue
% change 3.5 to 6.5 ([2]; explant sample 006): 258.5%
Anthocyanin uptake, Gel pH 3.5 ([2]; explant sample 006): 9.9 pmol per mg tissue
Anthocyanin uptake, Gel pH 6.5 ([2]; explant sample 006): 35.5 pmol per mg tissue
% change 3.5 to 6.5 ([2]; explant sample 007): −9.4%
Anthocyanin uptake, Gel pH 3.5 ([2]; explant sample 007): 1.1 pmol per mg tissue
Anthocyanin uptake, Gel pH 6.5 ([2]; explant sample 007): 1.0 pmol per mg tissue
Anthocyanin uptake, Gel pH 3.5 ([2]; explant sample 008): 0.0 pmol per mg tissue
Anthocyanin uptake, Gel pH 6.5 ([2]; explant sample 008): 6.3 pmol per mg tissue
% change 3.5 to 6.5 ([2]; explant sample 009): 318.4%
Anthocyanin uptake, Gel pH 3.5 ([2]; explant sample 009): 9.9 pmol per mg tissue
Anthocyanin uptake, Gel pH 6.5 ([2]; explant sample 009): 41.3 pmol per mg tissue
% change 3.5 to 6.5 ([2]; explant sample 010): −91.9%
Anthocyanin uptake, Gel pH 3.5 ([2]; explant sample 010): 6.7 pmol per mg tissue
Anthocyanin uptake, Gel pH 6.5 ([2]; explant sample 010): 0.5 pmol per mg tissue
% change 3.5 to 6.5 ([2]; explant sample 011): −100%
Anthocyanin uptake, Gel pH 3.5 ([2]; explant sample 011): 6.0 pmol per mg tissue
Anthocyanin uptake, Gel pH 6.5 ([2]; explant sample 011): 0.00 pmol per mg tissue
Compound: CC1OC(OCC2OC(Oc3cc4c(O)cc(O)cc4[o+]c3-c3ccc(O)c(O)c3)C(OC3OCC(O)C(O)C3O)C(O)C2O)C(O)C(O)C1O (stereo not shown) [cyanidin 3-xylosylrutinoside]

Anthocyanin concentration in saliva ([1]; patient 104): 11.2 pmol/mL
Anthocyanin concentration in saliva ([1]; patient 105): 9.7 pmol/mL
Anthocyanin concentration in saliva ([1]; patient 107): 19.7 pmol/mL
Anthocyanin concentration in saliva ([1]; patient 109): 22.8 pmol/mL
Anthocyanin uptake, Gel pH 3.5, Avg. ± SEM [2]: 29.6 pmol per mg tissue
Anthocyanin uptake, Gel pH 6.5, Avg. ± SEM [2]: 50.2 pmol per mg tissue
% change 3.5 to 6.5, Avg. ± SEM [2]: 85.6%
% change 3.5 to 6.5 ([2]; explant sample 001): 131.6%
Anthocyanin uptake, Gel pH 3.5 ([2]; explant sample 001): 128.1 pmol per mg tissue
Anthocyanin uptake, Gel pH 6.5 ([2]; explant sample 001): 296.6 pmol per mg tissue
% change 3.5 to 6.5 ([2]; explant sample 002): 36.2%
Anthocyanin uptake, Gel pH 3.5 ([2]; explant sample 002): 13.6 pmol per mg tissue
Anthocyanin uptake, Gel pH 6.5 ([2]; explant sample 002): 18.5 pmol per mg tissue
% change 3.5 to 6.5 ([2]; explant sample 003): −16.6%
Anthocyanin uptake, Gel pH 3.5 ([2]; explant sample 003): 14.4 pmol per mg tissue
Anthocyanin uptake, Gel pH 6.5 ([2]; explant sample 003): 12.0 pmol per mg tissue
% change 3.5 to 6.5 ([2]; explant sample 004): 653.5%
Anthocyanin uptake, Gel pH 3.5 ([2]; explant sample 004): 1.6 pmol per mg tissue
Anthocyanin uptake, Gel pH 6.5 ([2]; explant sample 004): 12.0 pmol per mg tissue
% change 3.5 to 6.5 ([2]; explant sample 005): 65.3%
Anthocyanin uptake, Gel pH 3.5 ([2]; explant sample 005): 32.0 pmol per mg tissue
Anthocyanin uptake, Gel pH 6.5 ([2]; explant sample 005): 52.9 pmol per mg tissue
% change 3.5 to 6.5 ([2]; explant sample 006): 91.3%
Anthocyanin uptake, Gel pH 3.5 ([2]; explant sample 006): 31.5 pmol per mg tissue
Anthocyanin uptake, Gel pH 6.5 ([2]; explant sample 006): 60.3 pmol per mg tissue
% change 3.5 to 6.5 ([2]; explant sample 007): 34.5%
Anthocyanin uptake, Gel pH 3.5 ([2]; explant sample 007): 17.0 pmol per mg tissue
Anthocyanin uptake, Gel pH 6.5 ([2]; explant sample 007): 22.8 pmol per mg tissue
% change 3.5 to 6.5 ([2]; explant sample 008): −40.7%
Anthocyanin uptake, Gel pH 3.5 ([2]; explant sample 008): 33.2 pmol per mg tissue
Anthocyanin uptake, Gel pH 6.5 ([2]; explant sample 008): 19.7 pmol per mg tissue
% change 3.5 to 6.5 ([2]; explant sample 009): 113.9%
Anthocyanin uptake, Gel pH 3.5 ([2]; explant sample 009): 21.2 pmol per mg tissue
Anthocyanin uptake, Gel pH 6.5 ([2]; explant sample 009): 45.3 pmol per mg tissue
% change 3.5 to 6.5 ([2]; explant sample 010): −66.9%
Anthocyanin uptake, Gel pH 3.5 ([2]; explant sample 010): 13.9 pmol per mg tissue
Anthocyanin uptake, Gel pH 6.5 ([2]; explant sample 010): 4.6 pmol per mg tissue
% change 3.5 to 6.5 ([2]; explant sample 011): −60.1%
Anthocyanin uptake, Gel pH 3.5 ([2]; explant sample 011): 18.9 pmol per mg tissue
Anthocyanin uptake, Gel pH 6.5 ([2]; explant sample 011): 7.5 pmol per mg tissue
Compound: OC[C@H]1O[C@@H](Oc2cc3c(O)cc(O)cc3[o+]c2-c2ccc(O)c(O)c2)[C@H](O)[C@@H](O)[C@@H]1O [cyanidin 3-glucoside]
